Experimental data taken from PubChem BioAssay (NCI).
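A five-concentration, 48-hour dose response in 96-well plates underlies each endpoint, interpolated linearly between surrounding concentrations. GI50 marks 50% less growth. TGI: total growth inhibition.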

Tests used:
Test in all cases: growth of human tumour cells (NCI), 48 h
K-562 leukemia = system: K-562 leukemia
RXF 393 renal = system: RXF 393 renal
OVCAR-5 ovarian = system: OVCAR-5 ovarian
OVCAR-8 ovarian = system: OVCAR-8 ovarian
SK-MEL-28 melanoma = system: SK-MEL-28 melanoma
SK-MEL-5 melanoma = system: SK-MEL-5 melanoma
UACC-257 melanoma = system: UACC-257 melanoma
NCI-H226 lung = system: NCI-H226 lung
HCT-15 colon = system: HCT-15 colon
T-47D breast = system: T-47D breast

Row | Structure (SMILES) | TGI (K-562 leukemia) [µM] | TGI (RXF 393 renal) [µM] | TGI (OVCAR-5 ovarian) [µM] | TGI (OVCAR-8 ovarian) [µM] | TGI (SK-MEL-28 melanoma) [µM] | TGI (SK-MEL-5 melanoma) [µM] | TGI (UACC-257 melanoma) [µM] | TGI (NCI-H226 lung) [µM] | TGI (HCT-15 colon) [µM] | GI50 (RXF 393 renal) [µM] | GI50 (HCT-15 colon) [µM] | GI50 (OVCAR-5 ovarian) [µM] | GI50 (OVCAR-8 ovarian) [µM] | GI50 (SK-MEL-28 melanoma) [µM] | GI50 (SK-MEL-5 melanoma) [µM] | GI50 (UACC-257 melanoma) [µM] | TGI (T-47D breast) [µM] | GI50 (T-47D breast) [µM] | GI50 (NCI-H226 lung) [µM] | GI50 (K-562 leukemia) [µM]
1 | COc1cc(/C=C2/C(=O)N(C(=O)OCc3ccccc3)C(Cc3cc(OC)c(OC)c(C)c3OC)C(=O)N2Cc2ccccc2)c(OC)c(C)c1OC (configuration not stated) | > 100 | > 100 | > 100 | > 100 | > 100 | 65.9 | > 100 | 12.6 | – | – | – | – | – | – | – | – | – | – | – | –
2 | Cc1ccc2nc(NC(=O)/C(=N\NC(=S)NN)C3C(=O)NC(=S)NC3=O)sc2c1 | > 100 | > 100 | > 100 | > 100 | > 100 | > 100 | > 100 | > 100 | > 100 | – | – | – | – | – | – | – | – | – | – | –
3 | C=CCN(N=O)C(=O)NCCCCC(NC(C)=O)C(=O)NCc1ccccc1 (configuration not stated) | > 100 | > 100 | > 100 | > 100 | > 100 | > 100 | > 100 | > 100 | > 100 | – | – | – | – | – | – | – | – | – | – | –
4 | COc1cnc2c(c1)C(=O)c1c-2n(CCCN2CCNCC2)c(=O)c2cc([N+](=O)[O-])ccc12 | – | 1.94 | 2.58 | 2.29 | 3.12 | 1.62 | 24.1 | – | 1.54 | 0.401 | 0.194 | 1.02 | 0.314 | 1.42 | 0.403 | 3.49 | – | – | – | –
5 | O=C1NC(c2cccc(OCc3ccccc3)c2)Nc2ccccc21 (configuration not stated) | 35.6 | – | > 22.7 | 27.5 | > 85.7 | 1.87 | 50.7 | 2.44 | 0.702 | – | – | – | – | – | – | – | > 90.1 | – | – | –
6 | CC1C2CC=CC(=O)[C@@]2(C)CCC12OCCO2 (some centres not stated) | > 100 | > 100 | > 100 | > 100 | > 100 | 65.4 | > 100 | > 100 | – | – | – | – | – | – | – | – | – | – | – | –
7 | CC1=C([Se]CC(OC(=O)[C@@H](CO)NC(=O)OC(C)(C)C)C(=O)NCCCCCC(=O)OCc2ccccc2)C(=O)c2ccccc2C1=O (some centres not stated) | – | 4.18 | 3.65 | 3.36 | 3.21 | 2.96 | – | 4.41 | 3.77 | 2.7 | 1.93 | 2.09 | 1.84 | 1.79 | 1.59 | – | 3.95 | 1.62 | 2.25 | –
8 | [O-]c1c2c(nn1-c1ccc(Cl)cc1)c1ccccc1c[n+]2Cc1ccccc1 | > 100 | 79.5 | > 100 | > 100 | > 100 | > 100 | > 100 | > 100 | – | – | – | – | – | – | – | – | – | – | – | –
9 | CCCCCC[C@H](C)NC(=O)c1ccc(Nc2nc3ccccc3c3occc23)cc1 | > 100 | 13.7 | > 100 | 8 | > 100 | 5.24 | 6.17 | – | 33 | 3.88 | 8.42 | 5.35 | 2.92 | 5.41 | 2.24 | 2.64 | 6.31 | 1.2 | – | 8.72
10 | CCN(CC)CCNc1ccc2nc(C)n3c4ccc(O)cc4c(=O)c1c23 | 13.4 | – | 8.1 | 3.23 | 11.3 | 15.6 | 21.2 | 2.13 | 5.83 | – | – | – | – | – | – | – | – | – | – | –
